Like-named read-outs stand apart in the source and are kept apart here.
Columns and labels:
human recombinant GR = molecular target: T1, human recombinant GR (Homo sapiens, UniProt P04150); assay: Human glucocorticoid receptor (GR) fluorescence polarisation (FP) binding assay
T1 construct: purchased PanVera P2812
T1 sequence (P04150 1-777): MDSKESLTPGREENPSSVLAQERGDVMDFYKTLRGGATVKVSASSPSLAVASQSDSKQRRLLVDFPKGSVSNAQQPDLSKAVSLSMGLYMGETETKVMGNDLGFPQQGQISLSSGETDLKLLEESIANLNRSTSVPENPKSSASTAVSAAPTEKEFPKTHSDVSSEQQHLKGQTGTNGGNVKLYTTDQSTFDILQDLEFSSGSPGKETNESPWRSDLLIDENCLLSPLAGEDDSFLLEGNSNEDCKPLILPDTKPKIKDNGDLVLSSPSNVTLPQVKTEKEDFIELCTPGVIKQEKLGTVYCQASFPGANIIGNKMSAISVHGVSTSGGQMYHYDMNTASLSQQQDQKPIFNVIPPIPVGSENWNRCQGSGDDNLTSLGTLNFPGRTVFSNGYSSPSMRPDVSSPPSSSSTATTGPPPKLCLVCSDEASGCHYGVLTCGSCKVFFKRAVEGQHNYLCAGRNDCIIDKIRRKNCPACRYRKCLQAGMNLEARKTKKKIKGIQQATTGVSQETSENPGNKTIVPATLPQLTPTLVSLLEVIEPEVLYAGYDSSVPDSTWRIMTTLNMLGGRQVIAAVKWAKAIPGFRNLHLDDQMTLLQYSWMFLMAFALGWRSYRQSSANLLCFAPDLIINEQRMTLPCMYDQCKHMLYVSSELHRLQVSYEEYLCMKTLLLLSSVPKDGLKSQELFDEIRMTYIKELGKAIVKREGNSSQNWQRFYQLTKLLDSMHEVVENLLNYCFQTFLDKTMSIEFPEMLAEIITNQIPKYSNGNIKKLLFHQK
Procedure: Human Glucocorticoid Receptor (GR) Fluorescence Polarisation (FP) Binding Assay
The following is a description of a FP assay for measuring compound inhibition of labelled glucocorticoid binding to the human recombinant GR.
The binding affinity of test compounds was determined using a FP binding assay using human recombinant GR (PanVera P2812) and a fluorescent labelled glucocorticoid ligand (Fluorome GS Red) (PanVera P2894). The presence of inhibitors prevents the formation of a GS Red/GR complex resulting in a decrease in the measured polarisation value. The change in polarisation value in the presence of test compounds is used to calculate the binding affinity of the compound for GR.
This assay was performed in 384 well, black, round-bottom, polypropylene micro titre plates in a final volume of 20 μl. The assay contained 5 μl 1 nM GR (final concentration), 5 μl 0.5 nM Fluorome GS Red (final concentration) in the presence of 10 μl test compounds. Positive control wells (high polarisation) receive, 10 μl 2% (v: v) DMSO vehicle (1% (v/v) final concentration)+5 μl 1 nM GR and 5 μl 0.5 nM Fluorome GS Red. […] Assay blank background wells (used for normalisation) receive 15 μl 1× GS screening buffer+5 μl GR.
Compounds were prepared as solubilised solids at 10 mM in DMSO. On the day of assay, an 8 point half-log serial dilution (55 μl DMSO+25 μl compound solution) was prepared. A 1:50 dilution (1 μl compound solution+49 μl 1× GR screening buffer) was prepared for each compound. The compounds were prepared at 2× final assay concentration.
The plates were mixed and incubated for 4 hour at room temperature.
10× GR screening buffer (100 mM potassium phosphate pH 7.4, 200 mM Na2MoO4, 1 mM EDTA, 20% (v/v) DMSO). To prepare 1× GR screening buffer, combine 1 ml 10× GR screening buffer (PanVera P2814)+1 ml stabilising peptide (PanVera P2815)+7.95 ml 4° C. MQ water. Add 50 μl 1M DTT, vortex and place on ice until use.

[1] = test system: induction of TAT by dexamethasone in HepG2 cells; assay: HepG2 tyrosine aminotransferase (TAT) assay; format: cell-based, human
Procedure: Example 21. HepG2 Tyrosine Aminotransferase (TAT) Assay
Glucocorticoid mediated activation of TAT occurs by transactivation of glucocorticoid response elements in the TAT promoter by glucocorticoid receptor agonist complex.
TAT activity was measured as outlined in the literature by A. Ali et al., J. Med. Chem., 2004, 47, 2441-2452.
HepG2 cells were cultured using MEME media supplemented with 10% (v/v) foetal bovine serum; 2 mM L-glutamine and 1% (v/v) NEAA at 37° C., 5%/95% (v/v) CO2/air. The HepG2 cells were counted and adjusted to yield a density of 0.125×10^6 cells/ml in RPMI 1640 without phenol red, 10% (v/v) charcoal stripped FBS, 2 mM L-glutamine and seeded at 25,000 cells/well in 200 μl into 96 well, sterile, tissue culture micro titre plates, and incubated at 37° C., 5% CO2 for 24 hours
Growth media was removed and replaced with assay media {RPMI 1640 without phenol red, 2 mM L-glutamine+10 μM forskolin}. […] Compounds were serially half log diluted in 100% (v/v) dimethylsupfoxide from a 10 mM stock.
HepG2 cells were then lysed with 30 μl of cell lysis buffer containing a protease inhibitor cocktail for 15 minutes at 4° C. 155 μl of substrate mixture was then added containing 5.4 mM Tyrosine sodium salt, 10.8 mM alpha ketoglutarate and 0.06 mM pyridoxal 5′ phosphate in 0.1M potassium phosphate buffer (pH 7.4). After 2 hours incubation at 37° C. the reaction was terminated by the addition of 15 μl of 10M aqueous potassium hydroxide solution, and the plates incubated for a further 30 minutes at 37° C. The TAT activity product was measured by absorbance at […].
[compound] and fitting the data to a 4 parameter logistic equation.

[2] = human recombinant GR, fluorescence polarisation binding assay, read-out: GR binding
[3] = HepG2 cells, challenge of 100 nM dexamethasone, Ki from IC50 by Cheng and Prusoff equation

| Compound | Ki (human recombinant GR; [2]) [nM] | Ki (human recombinant GR) [nM] | Ki [1] [nM] | Ki [1, 3] [nM] |
| --- | --- | --- | --- | --- |
| Cc1cccc(S(=O)(=O)N2CCC3=Cc4c(cnn4-c4ccc(F)cc4)C[C@]3(C(=O)c3ccccn3)C2)c1 [Example 2E, (R)-(1-(4-fluorophenyl)-6-(m-tolylsulfonyl)-4,4a,5,6,7,8-hexahydro-1H-pyrazolo[3,4-g]isoquinolin-4a-yl)(pyridin-2-yl)methanone] | – | < 0.5 | < 20 | – |
| O=C(c1ccccn1)[C@]12Cc3cnn(-c4ccc(F)cc4)c3C=C1CCN(S(=O)(=O)c1cccc(Cl)c1)C2 [Example 2F, (R)-(6-((3-chlorophenyl)sulfonyl)-1-(4-fluorophenyl)-4,4a,5,6,7,8-hexahydro-1H-pyrazolo[3,4-g]isoquinolin-4a-yl)(pyridin-2-yl)methanone] | – | < 0.5 | < 20 | – |
| COc1cccc(S(=O)(=O)N2CCC3=Cc4c(cnn4-c4ccc(F)cc4)C[C@]3(C(=O)c3ccccn3)C2)c1 [Example 2G, (R)-(1-(4-fluorophenyl)-6-((3-methoxyphenyl)sulfonyl)-4,4a,5,6,7,8-hexahydro-1H-pyrazolo[3,4-g]isoquinolin-4a-yl)(pyridin-2-yl)methanone] | – | < 0.5 | < 20 | – |
| COc1ccc(S(=O)(=O)N2CCC3=Cc4c(cnn4-c4ccc(F)cc4)C[C@]3(C(=O)c3ccccn3)C2)cc1 [Example 2I, (R)-(1-(4-fluorophenyl)-6-((4-methoxyphenyl)sulfonyl)-4,4a,5,6,7,8-hexahydro-1H-pyrazolo[3,4-g]isoquinolin-4a-yl)(pyridin-2-yl)methanone] | < 0.5 | – | – | < 20 |
| Cc1ccc(S(=O)(=O)N2CCC3=Cc4c(cnn4-c4ccc(F)cc4)C[C@]3(C(=O)c3ccccn3)C2)cc1F [Example 2J, (R)-(6-((3-fluoro-4-methylphenyl)sulfonyl)-1-(4-fluorophenyl)-4,4a,5,6,7,8-hexahydro-1H-pyrazolo[3,4-g]isoquinolin-4a-yl)(pyridin-2-yl)methanone] | < 0.5 | – | – | < 20 |
| O=C(c1ccccn1)[C@]12Cc3cnn(-c4ccc(F)cc4)c3C=C1CCN(S(=O)(=O)c1ccccc1F)C2 [Example 2L, (R)-(1-(4-fluorophenyl)-6-((2-fluorophenyl)sulfonyl)-4,4a,5,6,7,8-hexahydro-1H-pyrazolo[3,4-g]isoquinolin-4a-yl)(pyridin-2-yl)methanone] | < 0.5 | – | – | < 20 |
| Cn1cc(S(=O)(=O)N2CCC3=Cc4c(cnn4-c4ccc(F)cc4)C[C@]3(C(=O)c3ccccn3)C2)cn1 [Example 2M, (R)-(1-(4-fluorophenyl)-6-((1-methyl-1H-pyrazol-4-yl)sulfonyl)-4,4a,5,6,7,8-hexahydro-1H-pyrazolo[3,4-g]isoquinolin-4a-yl)(pyridin-2-yl)methanone] | < 0.5 | – | – | 20 to 100 |
| Cc1ccc(S(=O)(=O)N2CCC3=Cc4c(cnn4-c4ccc(F)cc4)C[C@]3(C(=O)c3ccccn3)C2)cc1 [Example 2O, (R)-(1-(4-fluorophenyl)-6-tosyl-4,4a,5,6,7,8-hexahydro-1H-pyrazolo [3,4-g]isoquinolin-4a-yl)(pyridin-2-yl)methanone] | – | < 0.5 | – | < 20 |
| O=C(c1ccccn1)[C@]12Cc3cnn(-c4ccc(F)cc4)c3C=C1CCN(S(=O)(=O)c1ccc(F)c(C(F)(F)F)c1)C2 [Example 2P, (R)-(6-((4-fluoro-3-(trifluoromethyl)phenyl)sulfonyl)-1-(4-fluorophenyl)-4,4a,5,6,7,8-hexahydro-1H-pyrazolo[3,4-g]isoquinolin-4a-yl)(pyridin-2-yl)methanone] | – | 0.5 to 1 | < 20 | – |
| N#Cc1ccc(S(=O)(=O)N2CCC3=Cc4c(cnn4-c4ccc(F)cc4)C[C@]3(C(=O)c3ccccn3)C2)cc1 [Example 2Q, (R)-4-((1-(4-fluorophenyl)-4a-picolinoyl-4a,5,7,8-tetrahydro-1H-pyrazolo[3,4-g]isoquinolin-6 (4H)-yl)sulfonyl)benzonitrile] | < 0.5 | – | – | 20 to 100 |
| O=C(c1ccccn1)[C@]12Cc3cnn(-c4ccc(F)cc4)c3C=C1CCN(S(=O)(=O)C1CCCCC1)C2 [Example 2T, (R)-(6-(cyclohexylsulfonyl)-1-(4-fluorophenyl)-4,4a,5,6,7,8-hexahydro-1H-pyrazolo [3,4-g]isoquinolin-4a-yl)(pyridin-2-yl)methanone] | > 1 | – | – | ≥ 100 |

Second part, led by results:

| Ki (human recombinant GR; [2]) [nM] | Compound | Ki (human recombinant GR) [nM] | Ki [1] [nM] | Ki [1, 3] [nM] |
| --- | --- | --- | --- | --- |
| < 0.5 | O=C(c1ccccn1)[C@]12Cc3cnn(-c4ccc(F)cc4)c3C=C1CCN(S(=O)(=O)c1ccc(Cl)c(F)c1)C2 [Example 2H, (R)-(6-((4-chloro-3-fluorophenyl)sulfonyl)-1-(4-fluorophenyl)-4,4a,5,6,7,8-hexahydro-1H-pyrazolo[3,4-g]isoquinolin-4a-yl)(pyridin-2-yl)methanone] | – | – | < 20 |
| < 0.5 | O=C(c1ccccn1)[C@]12Cc3cnn(-c4ccc(F)cc4)c3C=C1CCN(S(=O)(=O)c1ccccc1)C2 [Example 2K, (R)-(1-(4-fluorophenyl)-6-(phenylsulfonyl)-4,4a,5,6,7,8-hexahydro-1H-pyrazolo [3,4-g]isoquinolin-4a-yl)(pyridin-2-yl)methanone] | – | – | < 20 |
| < 0.5 | O=C(c1ccccn1)[C@]12Cc3cnn(-c4ccc(F)cc4)c3C=C1CCN(S(=O)(=O)c1ccc(C(F)(F)F)nc1)C2 [Example 2N, (R)-(1-(4-fluorophenyl)-6-((6-(trifluoromethyl)pyridin-3-yl)sulfonyl)-4,4a,5,6,7,8-hexahydro-1H-pyrazolo[3,4-g]isoquinolin-4a-yl) (pyridin-2-yl)methanone] | – | – | < 20 |
| < 0.5 | COc1ccc(S(=O)(=O)N2CCC3=Cc4c(cnn4-c4ccc(F)cc4)C[C@]3(C(=O)c3ccccn3)C2)cn1 [Example 2R, (R)-(1-(4-fluorophenyl)-6-((6-methoxypyridin-3-yl)sulfonyl)-4,4a,5,6,7,8-hexahydro-1H-pyrazolo[3,4-g]isoquinolin-4a-yl)(pyridin-2-yl)methanone] | – | – | < 20 |
| > 1 | O=C(c1ccccn1)[C@]12Cc3cnn(-c4ccc(F)cc4)c3C=C1CCN(S(=O)(=O)C1CCOCC1)C2 [Example 2S, (R)-(1-(4-fluorophenyl)-6-((tetrahydro-2H-pyran-4-yl)sulfonyl)-4,4a,5,6,7,8-hexahydro-1H-pyrazolo[3,4-g]isoquinolin-4a-yl)(pyridin-2-yl)methanone] | – | – | ≥ 100 |

— patent US12226412B2, “Heteroaryl-ketone fused azadecalin glucocorticoid receptor modulators” (Corcept Therapeutics, Inc., priority 2012, dated 2025)
